Assay results: patent US9593123B2, “Triazolo[4,5-D]pyrimidine derivatives” (Hoffmann-La Roche Inc., priority 2013, dated 2017)

Key:
[1] = target: human CB2 receptor (Homo sapiens (Human), UniProt P34972); assay: cAMP assay, CHO cells expressing human CB2 receptors; format: cell-based; settings: functional cAMP assay, read-out: CB2 hcAMP EC50
Protocol: (§1) CHO cells expressing human CB1 or CB2 receptors are seeded 17-24 hours prior to the experiment 50.000 cells per well in a black 96 well plate with flat clear bottom (Corning Costar #3904) in DMEM (Invitrogen No. 31331), 1×HT supplement, with 10% fetal calf serum and incubated at 5% CO2 and 37° C. in a humidified incubator. The growth medium was exchanged with Krebs Ringer Bicarbonate buffer with 1 mM IBMX and incubated at 30° C. for 30 min. Compounds were added to a final assay volume of 100 μl and incubated for 30 min at 30° C. Using the cAMP-Nano-TRF detection kit the assay (Roche Diagnostics) was stopped by the addition of 50 μl lysis reagent (Tris, NaCl, 1.5% Triton X100, 2.5% NP40, 10% NaN3) and 50 μl detection solutions (20 μM mAb Alexa700-cAMP 1:1, and 48 μM Ruthenium-2-AHA-cAMP) and shaken for 2 h at room temperature. The time-resolved energy transfer is measured by a TRF reader (Evotec Technologies GmbH), equipped with a ND:YAG laser as excitation source. The plate is measured twice with the excitation at 355 nm and at the emission with a delay of 100 ns and a gate of 100 ns, total exposure time 10 s at 730 (bandwidth 30 nm) or 645 nm (bandwidth 75 nm), respectively. The FRET signal is calculated as follows: FRET=T730-Alexa730-P(T645-B645) with P=Ru730-B730/Ru645-B645, where T730 is the test well measured at 730 nM, T645 is the test well measured at 645 nm, B730 and B645 are the buffer controls at 730 nm and 645 nm, respectively. cAMP content is determined from the function of a standard curve spanning from 10 μM to 0.13 nM cAMP.
(§2) EC50 values were determined using Activity Base analysis (ID Business Solution, Limited). The EC50 values for a wide range of cannabinoid agonists generated from this assay were in agreement with the values published in the scientific literature.

[2] = target: human CB1 receptor (Homo sapiens (Human), UniProt P21554); assay: cAMP assay, CHO cells expressing human CB1 receptors; format: cell-based; settings: functional cAMP assay, read-out: CB1 hcAMP EC50
Protocol: as §1, §2

Sequence of human CB2 receptor (P34972 whole entry): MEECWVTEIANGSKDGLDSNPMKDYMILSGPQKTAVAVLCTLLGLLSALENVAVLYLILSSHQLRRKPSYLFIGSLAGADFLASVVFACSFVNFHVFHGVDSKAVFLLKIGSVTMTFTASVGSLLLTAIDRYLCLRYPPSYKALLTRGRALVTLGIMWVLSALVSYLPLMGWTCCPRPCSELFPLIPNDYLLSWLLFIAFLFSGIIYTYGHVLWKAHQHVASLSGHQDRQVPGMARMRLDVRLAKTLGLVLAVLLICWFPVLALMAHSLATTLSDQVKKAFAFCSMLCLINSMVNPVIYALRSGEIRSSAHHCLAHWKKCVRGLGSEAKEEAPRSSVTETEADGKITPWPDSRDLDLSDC
Sequence of human CB1 receptor (P21554 whole entry): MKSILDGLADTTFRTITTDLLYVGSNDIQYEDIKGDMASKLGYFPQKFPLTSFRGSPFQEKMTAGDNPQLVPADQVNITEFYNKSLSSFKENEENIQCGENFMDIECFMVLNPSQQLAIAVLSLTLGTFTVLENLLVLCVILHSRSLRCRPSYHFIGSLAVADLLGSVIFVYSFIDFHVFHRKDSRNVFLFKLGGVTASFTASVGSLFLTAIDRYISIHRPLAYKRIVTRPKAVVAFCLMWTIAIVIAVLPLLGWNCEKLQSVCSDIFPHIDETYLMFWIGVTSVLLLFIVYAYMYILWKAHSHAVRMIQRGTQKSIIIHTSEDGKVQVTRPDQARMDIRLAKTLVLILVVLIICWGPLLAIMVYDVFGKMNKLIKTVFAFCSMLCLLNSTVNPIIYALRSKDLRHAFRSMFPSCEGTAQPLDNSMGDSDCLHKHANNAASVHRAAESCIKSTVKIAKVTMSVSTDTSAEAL

SMILES: CC(=O)N[C@H]1CCN(c2nc(O[C@@H](C)C(F)(F)F)nc3c2nnn3Cc2ccccc2Cl)C1 [Example 80, N-[(3S)-1-[3-[(2-Chlorophenyl)methyl]-5-[(2S)-1,1,1-trifluoropropan-2-yl]oxytriazolo [4,5-d]pyrimidin-7-yl]pyrrolidin-3-yl]acetamide]
- EC50 [1]: 159 nM
- EC50 [2]: > 10000 nM

SMILES: CCCCOc1nc(N2CCC(F)(F)C2)c2nnn(Cc3ccccc3Cl)c2n1 [Example 45, 5-Butoxy-3-[(2-chlorophenyl)methyl]-7-(3,3-difluoropyrrolidin-1-yl)triazolo[4,5-d]pyrimidine]
- EC50 [1]: 1.2 nM
- EC50 [2]: > 10000 nM

SMILES: C[C@H](Oc1nc(N2CCC(F)(F)C2)c2nnn(Cc3nnnn3C3CC3)c2n1)C(F)(F)F [Example 76, 3-[(1-Cyclopropyltetrazol-5-yl)methyl]-7-(3,3-difluoropyrrolidin-1-yl)-5-[(2S)-1,1,1-trifluoropropan-2-yl]oxytriazolo[4,5-d]pyrimidine]
- EC50 [1]: 17.7 nM
- EC50 [2]: > 10000 nM

SMILES: CC(O)CSc1nc(N2CCC(F)(F)C2)c2nnn(Cc3ccccc3Cl)c2n1 (stereo not drawn) [Example 90, 1-[3-[(2-Chlorophenyl)methyl]-7-(3,3-difluoropyrrolidin-1-yl)triazolo[4,5-d]pyrimidin-5-yl]sulfanylpropan-2-ol]
- EC50 [1]: 15.6 nM
- EC50 [2]: > 10000 nM

SMILES: CC(C)(C)Nc1nc(N2CC[C@H](O)C2)c2nnn(Cc3ccccc3Cl)c2n1 [Example 28, (3S)-1-[5-(tert-Butylamino)-3-[(2-chlorophenyl)methyl]triazolo[4,5-d]pyrimidin-7-yl]pyrrolidin-3-ol]
- EC50 [1]: 2.3 nM
- EC50 [2]: > 10000 nM

SMILES: FC(F)(F)CSc1nc(N2CCC(F)(F)C2)c2nnn(Cc3ccccc3Cl)c2n1 [Example 83, 3-[(2-Chlorophenyl)methyl]-7-(3,3-difluoropyrrolidin-1-yl)-5-(2,2,2-trifluoroethylsulfanyl)triazolo[4,5-d]pyrimidine]
- EC50 [1]: 1.9 nM
- EC50 [2]: > 10000 nM

SMILES: CC(=O)N[C@H]1CCN(c2nc(NC(C)(C)C)nc3c2nnn3Cc2ncccc2Cl)C1 [Example 27, N-[(3S)-1-[5-(tert-Butylamino)-3-[(3-chloropyridin-2-yl)methyl]triazolo[4,5-d]pyrimidin-7-yl]pyrrolidin-3-yl]acetamide]
- EC50 [1]: 267 nM
- EC50 [2]: > 10000 nM

SMILES: Cc1nonc1Cn1nnc2c(N3CCC(F)(F)C3)nc(NC(C)(C)C)nc21 [Example 26, N-tert-Butyl-7-(3,3-difluoropyrrolidin-1-yl)-3-[(4-methyl-1,2,5-oxadiazol-3-yl)methyl]triazolo[4,5-d]pyrimidin-5-amine]
- EC50 [1]: 1 nM
- EC50 [2]: > 10000 nM

SMILES: CC1(Nc2nc(N3CCC(F)(F)C3)c3nnn(Cc4ccccc4Cl)c3n2)COC1 [Example 13, 3-[(2-Chlorophenyl)methyl]-7-(3,3-difluoropyrrolidin-1-yl)-N-(3-methyloxetan-3-yl)triazolo[4,5-d]pyrimidin-5-amine]
- EC50 [1]: 12.5 nM
- EC50 [2]: > 10000 nM

SMILES: FC1(F)CCN(c2nc(OC3CCC3)nc3c2nnn3Cc2ccccc2Cl)C1 [Example 48, 3-[(2-Chlorophenyl)methyl]-5-cyclobutyloxy-7-(3,3-difluoropyrrolidin-1-yl)triazolo[4,5-d]pyrimidine]
- EC50 [1]: 1.7 nM
- EC50 [2]: > 10000 nM

SMILES: CCCCS(=O)(=O)c1nc(N2CCC(F)(F)C2)c2nnn(Cc3ccccc3Cl)c2n1 [Example 93, 5-Butylsulfonyl-3-[(2-chlorophenyl)methyl]-7-(3,3-difluoropyrrolidin-1-yl)triazolo [4,5-d]pyrimidine]
- EC50 [1]: 8.8 nM
- EC50 [2]: > 10000 nM

SMILES: Cn1nnnc1Cn1nnc2c(N3CCC(F)(F)C3)nc(NC(C)(C)C)nc21 [Example 25, N-tert-Butyl-7-(3,3-difluoropyrrolidin-1-yl)-3-[(1-methyltetrazol-5-yl)methyl]triazolo [4,5-d]pyrimidin-5-amine]
- EC50 [1]: 7.5 nM
- EC50 [2]: > 10000 nM

SMILES: COc1ccc(Cn2nnc3c(N4CCC(F)(F)C4)nc(NC(C)(C)C)nc32)cc1 [Example 20, N-tert-Butyl-7-(3,3-difluoropyrrolidin-1-yl)-3-[(4-methoxyphenyl)methyl]triazolo [4,5-d]pyrimidin-5-amine]
- EC50 [1]: 20.3 nM
- EC50 [2]: > 10000 nM

SMILES: CC(C)Oc1nc(N2CC[C@H](O)C2)c2nnn(Cc3ccccc3S(C)(=O)=O)c2n1 [Example 63, (3S)-1-[3-[(2-Methylsulfonylphenyl)methyl]-5-propan-2-yloxytriazolo[4,5-d]pyrimidin-7-yl]pyrrolidin-3-ol]
- EC50 [1]: 190 nM
- EC50 [2]: > 10000 nM

SMILES: Cc1nnc(Cn2nnc3c(N4CCC(F)(F)C4)nc(O[C@@H](C)C(F)(F)F)nc32)o1 [Example 71, 2-[[7-(3,3-Difluoropyrrolidin-1-yl)-5-[(2S)-1,1,1-trifluoropropan-2-yl]oxytriazolo[4,5-d]pyrimidin-3-yl]methyl]-5-methyl-1,3,4-oxadiazole]
- EC50 [1]: 214 nM
- EC50 [2]: > 10000 nM

SMILES: C[C@@]1(O)CCN(c2nc(N3CCOCC3)nc3c2nnn3Cc2ccccc2C(F)(F)F)C1 [Example 37, (3R)-3-Methyl-1-[5-morpholin-4-yl-3-[[2-(trifluoromethyl)phenyl]methyl]triazolo[4,5-d]pyrimidin-7-yl]pyrrolidin-3-ol]
- EC50 [1]: 23.6 nM
- EC50 [2]: > 10000 nM

SMILES: FC1(F)CCN(c2nc(OC3COC3)nc3c2nnn3Cc2ccccc2Cl)C1 [Example 49, 3-[(2-Chlorophenyl)methyl]-7-(3,3-difluoropyrrolidin-1-yl)-5-(oxetan-3-yloxy)triazolo [4,5-d]pyrimidine]
- EC50 [1]: 21.9 nM
- EC50 [2]: > 10000 nM

SMILES: C[C@H](Oc1nc(N2CCC(F)(F)C2)c2nnn(Cc3nnnn3C)c2n1)C(F)(F)F [Example 73, 7-(3,3-Difluoropyrrolidin-1-yl)-3-[(1-methyltetrazol-5-yl)methyl]-5-[(2S)-1,1,1-trifluoropropan-2-yl]oxytriazolo[4,5-d]pyrimidine]
- EC50 [1]: 42.3 nM
- EC50 [2]: > 10000 nM

SMILES: CC(F)(F)COc1nc(N2CCC(F)(F)C2)c2nnn(Cc3ccccc3Cl)c2n1 [Example 53, 3-[(2-Chlorophenyl)methyl]-5-(2,2-difluoropropoxy)-7-(3,3-difluoropyrrolidin-1-yl)triazolo[4,5-d]pyrimidine]
- EC50 [1]: 5.5 nM
- EC50 [2]: > 10000 nM

SMILES: CC(C)S(=O)(=O)c1nc(N2CCC(F)(F)C2)c2nnn(Cc3ccccc3Cl)c2n1 [Example 88, 3-[(2-Chlorophenyl)methyl]-7-(3,3-difluoropyrrolidin-1-yl)-5-propan-2-ylsulfonyltriazolo[4,5-d]pyrimidine]
- EC50 [1]: 1.7 nM
- EC50 [2]: > 10000 nM

SMILES: FC1(F)CCN(c2nc(NC3CCC3)nc3c2nnn3Cc2ccccc2Cl)C1 [Example 11, 3-[(2-Chlorophenyl)methyl]-N-cyclobutyl-7-(3,3-difluoropyrrolidin-1-yl)triazolo[4,5-d]pyrimidin-5-amine]
- EC50 [1]: 2.6 nM
- EC50 [2]: > 10000 nM

SMILES: CCOc1nc(N2CCC(F)(F)C2)c2nnn(Cc3ccccc3Cl)c2n1 [Example 44, 3-[(2-Chlorophenyl)methyl]-7-(3,3-difluoropyrrolidin-1-yl)-5-ethoxytriazolo[4,5-d]pyrimidine]
- EC50 [1]: 4 nM
- EC50 [2]: > 10000 nM

SMILES: CC(C)(C)Nc1nc(N2CCC(F)(F)C2)c2nnn(Cc3ccccc3C(F)(F)F)c2n1 [Example 22, N-tert-Butyl-7-(3,3-difluoropyrrolidin-1-yl)-3-[[2-(trifluoromethyl)phenyl]methyl]triazolo[4,5-d]pyrimidin-5-amine]
- EC50 [1]: 2.1 nM
- EC50 [2]: > 10000 nM

SMILES: C[C@]1(O)CCN(c2nc(N3CCOCC3)nc3c2nnn3Cc2ncccc2Cl)C1 [Example 34, (3S)-1-[3-[(3-chloropyridin-2-yl)methyl]-5-morpholin-4-yltriazolo[4,5-d]pyrimidin-7-yl]-3-methylpyrrolidin-3-ol]
- EC50 [1]: 45.3 nM
- EC50 [2]: > 10000 nM

SMILES: CC(=O)N[C@H]1CCN(c2nc(OCC(C)(C)C)nc3c2nnn3Cc2ncccc2Cl)C1 [Example 78, N-[(3S)-1-[3-[(3-Chloropyridin-2-yl)methyl]-5-(2,2-dimethylpropoxy)triazolo[4,5-d]pyrimidin-7-yl]pyrrolidin-3-yl]acetamide]
- EC50 [1]: 168 nM
- EC50 [2]: > 10000 nM

SMILES: CC(C)(C)CNc1nc(N2CCC(F)(F)C2)c2nnn(Cc3ccccc3Cl)c2n1 [Example 16, 3-[(2-Chlorophenyl)methyl]-7-(3,3-difluoropyrrolidin-1-yl)-N-(2,2-dimethylpropyl) triazolo[4,5-d]pyrimidin-5-amine]
- EC50 [1]: 3.1 nM
- EC50 [2]: > 10000 nM

SMILES: CCNc1nc(N2CCC(F)(F)C2)c2nnn(Cc3ccccc3Cl)c2n1 [Example 8, 3-[(2-Chlorophenyl)methyl]-7-(3,3-difluoropyrrolidin-1-yl)-N-ethyltriazolo[4,5-d]pyrimidin-5-amine]
- EC50 [1]: 4.5 nM
- EC50 [2]: > 10000 nM
